How the values were obtained:
Experiment in all cases: combination Emax (second highest fraction inhibited in the dose matrix, 72 h); higher = more inhibition; extreme values may be limits of the assay
[1] = tested on: DB (B-Cell Non-Hodgkin's Lymphoma)
In short: (§1)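 After 24 hours at 37°C and 5% CO2 in 1536-well plates, cells in DMEM/F12 or RPMI plus 10% FBS received two-drug dose matrices for 72 hours. Viability came from CellTiter-Glo 2.0 luminescence and was scaled as inhibition, anchored at 0 by vehicle wells and at 1 by blank wells. Combination Emax is taken as the second-highest inhibition in the matrix, and Bliss excess as the observed combination effect less EA + EB − EA·EB, with EA and EB the single-agent effects.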

[2] = tested on: DOV13 (Ovarian Carcinoma)
In short: as §1

DSH1 (Bladder Carcinoma) = tested on: DSH1 (Bladder Carcinoma)
In short: as §1

ES7 (Ewing's Sarcoma) = tested on: ES7 (Ewing's Sarcoma)
In short: as §1

[3] = tested on: HT-29 (Colorectal Carcinoma)
In short: as §1

[4] = tested on: IHH-4 (Thyroid Gland Carcinoma)
In short: as §1

[5] = tested on: KARPAS-620 (Plasma Cell Myeloma)
In short: as §1

[6] = tested on: KATOIII (Gastric Carcinoma)
In short: as §1

[7] = tested on: LS-513 (Colorectal Carcinoma)
In short: as §1

[8] = tested on: MDA-MB-157 (Breast Carcinoma)
In short: as §1

[9] = tested on: MDA-MB-231 (Breast Carcinoma)
In short: as §1

[10] = tested on: MFH-ino (Other Solid Carcinomas)
In short: as §1

[11] = tested on: NALM-6 (B-Lymphoblastic Leukemia)
In short: as §1

NCI-H2595 (Mesothelioma) = tested on: NCI-H2595 (Mesothelioma)
In short: as §1

[12] = tested on: OCI-AML2 (Acute Myeloid Leukemia)
In short: as §1

SK-N-FI (Neuroblastoma) = tested on: SK-N-FI (Neuroblastoma)
In short: as §1

SN12C (Kidney Carcinoma) = tested on: SN12C (Kidney Carcinoma)
In short: as §1

[13] = tested on: SW1088 (Low Grade Glioma)
In short: as §1

[14] = tested on: SW1990 (Pancreatic Carcinoma)
In short: as §1

[15] = tested on: TE-5 (Esophageal Squamous Cell Carcinoma)
In short: as §1

Structure (SMILES)	combination Emax [1]	combination Emax [2]	combination Emax (DSH1 (Bladder Carcinoma))	combination Emax (ES7 (Ewing's Sarcoma))	combination Emax [3]	combination Emax [4]	combination Emax [5]	combination Emax [6]	combination Emax [7]	combination Emax [8]	combination Emax [9]	combination Emax [10]	combination Emax [11]	combination Emax (NCI-H2595 (Mesothelioma))	combination Emax [12]	combination Emax (SK-N-FI (Neuroblastoma))	combination Emax (SN12C (Kidney Carcinoma))	combination Emax [13]	combination Emax [14]	combination Emax [15]
CN(CCO)CC[C@H](CSc1ccccc1)Nc1ccc(S(=O)(=O)NC(=O)c2ccc(N3CCC([C@@H](O)c4ccccc4-c4ccc(Cl)cc4)CC3)cc2)cc1S(=O)(=O)C(F)(F)F [AZD4320] + CS(=O)(=O)CCNCc1ccc(-c2ccc3ncnc(Nc4ccc(OCc5cccc(F)c5)c(Cl)c4)c3c2)o1 [Lapatinib] (first compound max 1 µM, 7x7, partner max 10 µM)	1	1	1	0.984	0.928	0.268	1	0.586	0.956	0.328	0.951	0.262	1	0.329	1	0.578	0.347	0.388	0.302	0.888
CS(=O)(=O)CCNCc1ccc(-c2ccc3ncnc(Nc4ccc(OCc5cccc(F)c5)c(Cl)c4)c3c2)o1 [Lapatinib] + NC1(c2ccc(-c3nc4ccn5c(=O)[nH]nc5c4cc3-c3ccccc3)cc2)CCC1 [MK-2206] (first compound max 10 µM, 7x7, partner max 10 µM)	0.944	0.867	1	0.938	0.95	0.92	0.928	0.44	0.951	0.273	0.729	0.153	0.957	0.228	0.912	0.461	0.238	0.624	0.256	0.728
C[C@@H](Oc1cc(-c2cnn(C3CCNCC3)c2)cnc1N)c1c(Cl)ccc(F)c1Cl [Crizotinib] + Cn1cnc2c(F)c(Nc3ccc(Br)cc3Cl)c(C(=O)NOCCO)cc21 [Selumetinib] (first compound max 10 µM, 7x7, partner max 10 µM)	0.751	0.647	0.229	0.818	0.98	0.758	0.941	0.588	1	0.243	0.725	0.542	0.905	0.292	1	0.809	0.244	0.596	0.158	0.186
C=CCn1c(=O)c2cnc(Nc3ccc(N4CCN(C)CC4)cc3)nc2n1-c1cccc(C(C)(C)O)n1 [AZD1775] + Nc1ccn([C@@H]2O[C@H](CO)[C@@H](O)C2(F)F)c(=O)n1 [Gemcitabine] (first compound max 1 µM, partner max 0.3 µM)	0.952	0.952	0.923	0.983	0.884	1	0.548	0.506	0.839	0.917	0.78	0.68	0.958	0.344	1	0.616	0.576	0.581	0.384	0.568
C[C@@H](Nc1cc(F)cc(F)c1)c1cc(C(=O)N(C)C)cc2c(=O)cc(N3CCOCC3)oc12 [AZD8186] + CC(=O)c1c(C)c2cnc(Nc3ccc(N4CCNCC4)cn3)nc2n(C2CCCC2)c1=O [Palbociclib] (first compound max 10 µM, 7x7, partner max 10 µM)	0.601	0.484	0.471	0.724	0.562	0.426	0.775	0.356	0.584	0.333	0.49	0.423	0.833	0.303	0.834	0.43	0.281	0.724	0.267	0.394
Cc1c2c(nn1C)CSCc1cc(n(C)n1)CSc1cc(c3ccccc3c1)OCCCc1c(C(=O)O)n(C)c3c-2c(Cl)ccc13 [AZD5991] + CC(=O)O[C@H]1C(=O)[C@@]2(C)[C@H]([C@H](OC(=O)c3ccccc3)[C@]3(O)C[C@H](OC(=O)[C@H](O)[C@@H](NC(=O)c4ccccc4)c4ccccc4)C(C)=C1C3(C)C)[C@]1(OC(C)=O)CO[C@@H]1C[C@@H]2O [Paclitaxel] (first compound max 1 µM, 7x7, partner max 3 µM)	1	0.796	0.963	0.958	0.77	0.932	1	0.283	0.893	0.977	0.498	0.416	0.969	0.703	1	0.621	0.44	0.776	0.496	0.699

Reference: the supplement of paper PMC11061612
